US10294207B2, “Pyrazole derivatives as TNIK, IKKϵ and TBK1 inhibitor and pharmaceutical composition comprising same” (GREEN CROSS CORPORATION, priority 2015, dated 2019)

How the values were obtained:
IKKε = molecular target: T1, IKKε (Homo sapiens, UniProt Q14164); assay: IKKε inhibition, ADP-Glo Kinase Assay; type: biochemical; details: luminometer
T1 construct: purchased Invitrogen PR8031B
T1 sequence (Q14164 1-716): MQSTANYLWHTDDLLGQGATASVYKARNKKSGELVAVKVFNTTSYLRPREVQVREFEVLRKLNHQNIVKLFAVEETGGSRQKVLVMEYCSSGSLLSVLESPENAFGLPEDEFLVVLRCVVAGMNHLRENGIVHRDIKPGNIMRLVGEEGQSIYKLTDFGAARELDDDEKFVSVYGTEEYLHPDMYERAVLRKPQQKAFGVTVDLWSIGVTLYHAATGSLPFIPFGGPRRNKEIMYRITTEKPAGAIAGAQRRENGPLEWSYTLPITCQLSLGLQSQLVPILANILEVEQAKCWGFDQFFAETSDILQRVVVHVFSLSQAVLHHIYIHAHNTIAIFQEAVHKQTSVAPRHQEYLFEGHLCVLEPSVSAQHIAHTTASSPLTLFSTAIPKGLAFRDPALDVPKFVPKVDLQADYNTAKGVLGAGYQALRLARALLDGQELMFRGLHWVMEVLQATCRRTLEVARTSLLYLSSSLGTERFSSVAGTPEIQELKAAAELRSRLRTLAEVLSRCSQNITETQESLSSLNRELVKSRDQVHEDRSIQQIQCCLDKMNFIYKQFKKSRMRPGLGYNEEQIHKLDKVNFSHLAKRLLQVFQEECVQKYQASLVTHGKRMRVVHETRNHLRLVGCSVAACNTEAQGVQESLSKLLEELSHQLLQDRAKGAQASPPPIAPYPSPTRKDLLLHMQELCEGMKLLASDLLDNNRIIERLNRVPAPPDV
Procedure, shortened: (§1)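 ADP-Glo luminescence reported ADP produced by each kinase, following the kit protocol. Reactions used commercial kinase enzyme systems in buffer of 40 mM Tris (pH 7.5), 20 mM MgCl2 and 0.1 mg/mL BSA.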

TBK1 = molecular target: T2, TBK1 (Homo sapiens, UniProt Q9UHD2); assay: TBK1 inhibition, ADP-Glo Kinase Assay; type: biochemical; details: luminometer
T2 construct: purchased Promega V3991
T2 sequence (Q9UHD2 1-729): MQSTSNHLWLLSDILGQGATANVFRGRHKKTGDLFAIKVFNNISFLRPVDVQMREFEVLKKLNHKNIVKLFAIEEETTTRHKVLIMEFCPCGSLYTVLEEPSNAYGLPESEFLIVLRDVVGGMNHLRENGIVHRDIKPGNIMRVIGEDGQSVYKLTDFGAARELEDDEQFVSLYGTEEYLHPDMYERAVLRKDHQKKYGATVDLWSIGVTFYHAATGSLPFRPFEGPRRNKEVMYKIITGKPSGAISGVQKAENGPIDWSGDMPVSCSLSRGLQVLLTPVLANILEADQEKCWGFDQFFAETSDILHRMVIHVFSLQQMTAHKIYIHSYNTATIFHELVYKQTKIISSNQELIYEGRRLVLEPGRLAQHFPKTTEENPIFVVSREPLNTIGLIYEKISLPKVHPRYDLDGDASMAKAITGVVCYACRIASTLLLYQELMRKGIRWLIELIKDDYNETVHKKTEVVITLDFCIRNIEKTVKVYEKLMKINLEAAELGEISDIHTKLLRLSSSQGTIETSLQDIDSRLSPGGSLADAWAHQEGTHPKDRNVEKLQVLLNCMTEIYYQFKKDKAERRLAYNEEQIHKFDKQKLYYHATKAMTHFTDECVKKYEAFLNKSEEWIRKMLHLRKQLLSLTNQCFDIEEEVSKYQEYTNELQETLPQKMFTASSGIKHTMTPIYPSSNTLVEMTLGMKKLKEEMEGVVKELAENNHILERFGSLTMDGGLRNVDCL
Procedure, shortened: as §1

Row | IC50 (IKKε) [µM] | IC50 (TBK1) [µM] | SMILES
1 | 0.011 | 0.0042 | CC[C@@H](NC(=O)c1ccc2[nH]nc(NC(=O)c3ccc(N4CCN(C)CC4)cc3)c2c1)c1cccs1 [Example 112, (R)-3-(4-(4-Methylpiperazin-1-yl)benzamido)-N-(1-(thiophen-2-yl)propyl)-1H-indazole-5-carboxamide]
2 | 0.18 | 0.018 | CCCCNC(=O)c1ccc2[nH]nc(NC(=O)c3ccc(N4CCN(C)CC4)cc3)c2c1 [Example 113, N-Butyl-3-(4-(4-methylpiperazin-1-yl)benzamido)-1H-indazole-5-carboxamide 2,2,2-trifluoroacetate]
3 | 0.41 | 0.082 | CC(C)CCNC(=O)c1ccc2[nH]nc(NC(=O)c3ccc(N4CCN(C)CC4)cc3)c2c1 [Example 114, N-Isopentyl-3-(4-(4-methylpiperazin-1-yl)benzamido)-1H-indazole-5-carboxamide 2,2,2-trifluoroacetate]
4 | 0.97 | 0.071 | CCCCNC(=O)c1ccc2[nH]nc(NC(=O)c3ccc(N4CCOCC4)cc3)c2c1 [Example 115, N-Butyl-3-(4-morpholinobenzamido)-1H-indazole-5-carboxamide 2,2,2-trifluoroacetate]
5 | 3.12 | 0.48 | CC(C)CCNC(=O)c1ccc2[nH]nc(NC(=O)c3ccc(N4CCOCC4)cc3)c2c1 [Example 116, N-Isopentyl-3-(4-morpholinobenzamido)-1H-indazole-5-carboxamide 2,2,2-trifluoroacetate]
6 | 0.071 | 0.0033 | C[C@H]1CN(c2ccc(C(=O)Nc3n[nH]c4ccc(C(=O)NCc5cccs5)cc34)cc2)CCN1 [Example 117, (S)-3-(4-(3-Methylpiperazin-1-yl)benzamido)-N-(thiophen-2-ylmethyl)-1H-indazole-5-carboxamide 2,2,2-trifluoroacetate]
7 | 1.96 | 0.3 | CN1CCN(c2ccc(C(=O)Nc3n[nH]c4ccc(C(=O)NCc5ncon5)cc34)cc2)CC1 [Example 118]
8 | 1.24 | 0.46 | O=C(NCc1c[nH]nn1)c1ccc2[nH]nc(NC(=O)c3ccc(N4CCOCC4)cc3)c2c1 [Example 119]
9 | 0.11 | 0.0063 | CN1CCN(c2ccc(C(=O)Nc3n[nH]c4ccc(C(=O)NCc5ccncc5)cc34)cc2)CC1 [Example 121, 3-(4-(4-Methylpiperazin-1-yl)benzamido)-N-(pyridin-4-ylmethyl)-1H-indazole-5-carboxamide]
10 | 0.025 | 0.0044 | O=C(Nc1n[nH]c2ccc(C(=O)NC(c3cccs3)C3CC3)cc12)c1ccc(N2CCOCC2)cc1 (stereo not drawn) [Example 122, N-(Cyclopropyl(thiophen-2-yl)methyl)-3-(4-morpholinobenzamido)-1H-indazole-5-carboxamide]
11 | 4.47 | 0.66 | O=C(Nc1n[nH]c2ccc(CNCc3cccs3)cc12)c1ccc(N2CCOCC2)cc1 [Example 123]
12 | > 10 | 2.44 | CCC(NCc1ccc2[nH]nc(NC(=O)c3ccc(N4CCN(C)CC4)cc3)c2c1)c1cccs1 (stereo not drawn) [Example 124]
13 | 0.037 | 0.026 | CN1CCN(c2ccc(C(=O)Nc3n[nH]c4ccc(C(=O)NC(c5cccs5)C5CC5)cc34)cc2)CC1 (stereo not drawn) [Example 125, N-(Cyclopropyl(thiophen-2-yl)methyl)-3-(4-(4-methylpiperazin-1-yl)benzamido)-1H-indazole-5-carboxamide]
14 | 0.013 | 0.019 | O=C(Nc1n[nH]c2ccc(C(=O)NC(c3cccs3)C3CC3)cc12)c1ccc(N2CCNCC2)cc1 (stereo not drawn) [Example 126, N-(Cyclopropyl(thiophen-2-yl)methyl)-3-(4-(piperazin-1-yl)benzamido)-1H-indazole-5-carboxamide]
15 | 0.14 | 0.027 | CC(NC(=O)c1ccc2[nH]nc(NC(=O)c3ccc(N4CCOCC4)cc3)c2c1)c1ccccn1 (stereo not drawn) [Example 127, 3-(4-Morpholinobenzamido)-N-(1-(pyridin-2-yl)ethyl)-1H-indazole-5-carboxamide]
16 | 0.11 | 0.028 | CC(NC(=O)c1ccc2[nH]nc(NC(=O)c3ccc(N4CCN(C)CC4)cc3)c2c1)c1ccccn1 (stereo not drawn) [Example 128, 3-(4-(4-Methylpiperazin-1-yl)benzamido)-N-(1-(pyridin-2-yl)ethyl)-1H-indazole-5-carboxamide]
17 | 0.054 | 0.022 | CC(C)CC(NC(=O)c1ccc2[nH]nc(NC(=O)c3ccc(N4CCN(C)CC4)cc3)c2c1)c1cccs1 (stereo not drawn) [Example 129, N-(3-Methyl-1-(thiophen-2-yl)butyl)-3-(4-(4-methylpiperazin-1-yl)benzamido)-1H-indazole-5-carboxamide]
18 | 0.9 | 0.11 | CC(C)CC(NC(=O)c1ccc2[nH]nc(NC(=O)c3ccc(N4CCOCC4)cc3)c2c1)c1cccs1 (stereo not drawn) [Example 130, N-(3-Methyl-1-(thiophen-2-yl)butyl)-3-(4-morpholinobenzamido)-1H-indazole-5-carboxamide]
19 | 0.14 | 0.03 | CCC(C)(NC(=O)c1ccc2[nH]nc(NC(=O)c3ccc(N4CCN(C)CC4)cc3)c2c1)c1cccs1 (stereo not drawn) [Example 131, 3-(4-(4-methylpiperazin-1-yl)benzamido)-N-(2-(thiophen-2-yl)butan-2-yl)-1H-indazole-5-carboxamide]
20 | 0.043 | 0.023 | CC(NC(=O)c1ccc2[nH]nc(NC(=O)c3ccc(N4CCOCC4)cc3)c2c1)c1ccncc1 (stereo not drawn) [Example 132, 3-(4-Morpholinobenzamido)-N-(1-(pyridin-4-yl)ethyl)-1H-indazole-5-carboxamide]
21 | 0.053 | 0.028 | CC(NC(=O)c1ccc2[nH]nc(NC(=O)c3ccc(N4CCN(C)CC4)cc3)c2c1)c1ccncc1 (stereo not drawn) [Example 133, 3-(4-(4-Methylpiperazin-1-yl)benzamido)-N-(1-(pyridin-4-yl)ethyl)-1H-indazole-5-carboxamide]
22 | 0.033 | 0.012 | CC(C)(NC(=O)c1ccc2[nH]nc(NC(=O)c3ccc(N4CCOCC4)cc3)c2c1)c1cccs1 [Example 134, 3-(4-Morpholinobenzamido)-N-(2-(thiophen-2-yl)propan-2-yl)-1H-indazole-5-carboxamide]
23 | 0.038 | 0.0085 | CN1CCN(c2ccc(C(=O)Nc3n[nH]c4ccc(C(=O)NC(c5cccs5)C(F)(F)F)cc34)cc2)CC1 (stereo not drawn) [Example 135, 3-(4-(4-Methylpiperazin-1-yl)benzamido)-N-(2,2,2-trifluoro-1-(thiophen-2-yl)ethyl)-1H-indazole-5-carboxamide]
24 | 0.024 | 0.0057 | CN1CCN(c2ccc(C(=O)Nc3n[nH]c4ccc(C(=O)NC(C)(C)c5cccs5)cc34)cc2)CC1 [Example 136, 3-(4-(4-Methylpiperazin-1-yl)benzamido)-N-(2-(thiophen-2-yl)propan-2-yl)-1H-indazole-5-carboxamide]
25 | 0.032 | 0.0049 | C[C@H]1CN(c2ccc(C(=O)Nc3n[nH]c4ccc(C(=O)NC(C)(C)c5cccs5)cc34)cc2)CCN1 [Example 137, (S)-3-(4-(3-Methylpiperazin-1-yl)benzamido)-N-(2-(thiophen-2-yl)propan-2-yl)-1H-indazole-5-carboxamide]
26 | 0.12 | 0.039 | O=C(Nc1n[nH]c2ccc(C(=O)NC(c3cccs3)C(F)(F)F)cc12)c1ccc(N2CCOCC2)cc1 (stereo not drawn) [Example 138, 3-(4-Morpholinobenzamido)-N-(2,2,2-trifluoro-1-(thiophen-2-yl)ethyl)-1H-indazole-5-carboxamide]
27 | 0.34 | 0.1 | O=C(Nc1n[nH]c2ccc(C(=O)NC(c3ccccn3)C3CC3)cc12)c1ccc(N2CCOCC2)cc1 (stereo not drawn) [Example 139, N-(Cyclopropyl(pyridin-2-yl)methyl)-3-(4-morpholinobenzamido)-1H-indazole-5-carboxamide]
